Here are results for four substances from patent US10414891B2, “Polyurethane curatives” (The Shepherd Chemical Company, priority 2015, dated 2019).

Data set [1] can be described thus: Accelerated aging of curatives in polyol mix with water and temperature. The format is physicochemical. Conditions: curative 2.0 parts. An excerpt:
[Note: polyols supplied to Shepherd as their 4-component polyol systems by Huntsman.] BiCAT 8108 is bismuth neodecanoate, 20 wt % bismuth.

Data set [2] is described as follows: Moisture stability of curative in polyol side of two-part TDI spray-foam system. The format is physicochemical. The method, then:
BiCAT 8842 was used in a two-part polyurethane system (TDI) for spray-foam applications. The BiCAT 8842 was added at 0.125 wt % to the polyol side (B-part). In addition, the polyol side contained 2.5 wt % water. […] The same dosage of stannous octoate curative was added to the TDI-tin-based control formulation.

The mark [3] stands for this setting: DAY 1, DI water 2.5 parts, oven 130° F.
Setting [4] is: DAY 2, DI water 2.5 parts, oven 130° F.
Setting [5] is: DAY 3, DI water 2.5 parts, oven 130° F.
Where [6] appears, read: DAY 4, DI water 2.5 parts, oven 160° F.
The mark [7] stands for this setting: DAY 5, DI water 4.0 parts, oven 160° F.
The mark [8] stands for this setting: DAY 6, DI water 4.0 parts, oven 160° F.

For “bismuth neodecanoate [BiCAT 8108, reference compound]”, the Stability entry is given as “transparent” in data set [1] (setting [3]); “transparent” in data set [1] (setting [4]); “transparent” in data set [1] (setting [5]); “transparent” in data set [1] (setting [6]); “very sl. hazy” in data set [1] (setting [7]); “opaque; ppt formation” in data set [1] (setting [8]).

Turning to “bismuth neodecanoate [reference compound]”, the “time until formulation began to turn white (bismuth hydrolysis to the hydroxide)” value in data set [2] (same use level, polyol side containing 2.5 wt % water) is given as approximately 14 min.

As to “bismuth, 1,1′,1″,1′″-(1,2-ethanediyldinitrilo)tetrakis[2-propanol] neodecanoate complexes [Curative 8840]”, the Stability result in data set [1] (setting [3]), in data set [1] (setting [4]), in data set [1] (setting [5]), in data set [1] (setting [6]), in data set [1] (setting [7]) and in data set [1] (setting [8]) was “transparent” throughout.

For “bismuth, 2,2′,2″,2′″-(1,2-ethanediyldinitrilo)tetrakis[ethanol] neodecanoate complexes [Curative 8842]”, the Stability entry in data set [1] (setting [3]), in data set [1] (setting [4]), in data set [1] (setting [5]), in data set [1] (setting [6]), in data set [1] (setting [7]) and in data set [1] (setting [8]) was “transparent” in each case. The “stability in the presence of moisture” value in data set [2] (0.125 wt % in polyol side (B-part) containing 2.5 wt % water) was “remained stable for many weeks”.
